Assay results: publication PMC5513037, “Examining the influence of specificity ligands and ATP-competitive ligands on the overall effectiveness of bivalent kinase inhibitors” (Proteome Science, 2017)

Experiments:
Assay in all cases: KAM-matrix competition in K562 lysate;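 as to 0.001 uM KAM: median log10 fold change of treatment over DMSO control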;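 as to 0.01 uM KAM: median log10 fold change of treatment over DMSO control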;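 as to 0.1 uM KAM: median log10 fold change of treatment over DMSO control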;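 as to 1 uM KAM: median log10 fold change of treatment over DMSO control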;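 as to 10 uM KAM: median log10 fold change of treatment over DMSO control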
Assay type in all cases: binding
RPS6KA4 = biological target: T1, RPS6KA4 (Homo sapiens, UniProt O75676)
T1 construct: endogenous in cells; host or cells: K562
Method: (§1) Supplement 12953_2017_125_MOESM1_ESM.zip/MS_Supp Info.xlsx, sheet "KAM" | column: 10 uM KAM; 1 uM KAM; 0.1 uM KAM; 0.01 uM KAM; 0.001 uM KAM; RB50

RIPK1 = biological target: T2, RIPK1 (Homo sapiens, UniProt Q13546);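 as to 0.001 uM KAM: median log10 fold change of treatment over DMSO control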;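 as to 0.01 uM KAM: median log10 fold change of treatment over DMSO control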;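 as to 0.1 uM KAM: median log10 fold change of treatment over DMSO control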;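 as to 1 uM KAM: median log10 fold change of treatment over DMSO control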;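 as to 10 uM KAM: median log10 fold change of treatment over DMSO control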
T2 construct: endogenous in cells; host or cells: K562
T2 sequence (Q13546 1-671): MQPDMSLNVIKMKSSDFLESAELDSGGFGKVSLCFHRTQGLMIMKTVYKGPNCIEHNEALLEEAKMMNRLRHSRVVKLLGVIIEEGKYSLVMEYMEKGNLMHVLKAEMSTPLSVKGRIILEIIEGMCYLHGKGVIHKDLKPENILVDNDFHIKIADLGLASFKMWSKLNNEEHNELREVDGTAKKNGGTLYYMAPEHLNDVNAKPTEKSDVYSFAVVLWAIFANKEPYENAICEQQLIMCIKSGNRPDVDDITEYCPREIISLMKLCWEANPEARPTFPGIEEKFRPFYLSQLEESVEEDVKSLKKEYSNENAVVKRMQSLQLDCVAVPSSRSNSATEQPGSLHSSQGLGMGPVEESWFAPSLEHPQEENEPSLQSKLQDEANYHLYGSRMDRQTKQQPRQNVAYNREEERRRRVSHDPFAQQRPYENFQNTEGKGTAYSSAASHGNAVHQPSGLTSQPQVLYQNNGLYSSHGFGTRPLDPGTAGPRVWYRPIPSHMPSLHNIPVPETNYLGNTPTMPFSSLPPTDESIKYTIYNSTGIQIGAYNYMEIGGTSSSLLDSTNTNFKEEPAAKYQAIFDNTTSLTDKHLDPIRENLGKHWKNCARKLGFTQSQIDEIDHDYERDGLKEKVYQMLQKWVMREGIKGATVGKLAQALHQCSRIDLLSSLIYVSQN
Method: as §1

TGFBR2 = biological target: T3, TGFBR2 (Homo sapiens, UniProt P37173)
T3 construct: endogenous in cells; host or cells: K562
Method: as §1

BAZ1B = biological target: T4, BAZ1B (Homo sapiens, UniProt Q9UIG0);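 as to 0.001 uM KAM: median log10 fold change of treatment over DMSO control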;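 as to 0.01 uM KAM: median log10 fold change of treatment over DMSO control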;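 as to 0.1 uM KAM: median log10 fold change of treatment over DMSO control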;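 as to 1 uM KAM: median log10 fold change of treatment over DMSO control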;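 as to 10 uM KAM: median log10 fold change of treatment over DMSO control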
T4 construct: endogenous in cells; host or cells: K562
T4 sequence (Q9UIG0 1-1483): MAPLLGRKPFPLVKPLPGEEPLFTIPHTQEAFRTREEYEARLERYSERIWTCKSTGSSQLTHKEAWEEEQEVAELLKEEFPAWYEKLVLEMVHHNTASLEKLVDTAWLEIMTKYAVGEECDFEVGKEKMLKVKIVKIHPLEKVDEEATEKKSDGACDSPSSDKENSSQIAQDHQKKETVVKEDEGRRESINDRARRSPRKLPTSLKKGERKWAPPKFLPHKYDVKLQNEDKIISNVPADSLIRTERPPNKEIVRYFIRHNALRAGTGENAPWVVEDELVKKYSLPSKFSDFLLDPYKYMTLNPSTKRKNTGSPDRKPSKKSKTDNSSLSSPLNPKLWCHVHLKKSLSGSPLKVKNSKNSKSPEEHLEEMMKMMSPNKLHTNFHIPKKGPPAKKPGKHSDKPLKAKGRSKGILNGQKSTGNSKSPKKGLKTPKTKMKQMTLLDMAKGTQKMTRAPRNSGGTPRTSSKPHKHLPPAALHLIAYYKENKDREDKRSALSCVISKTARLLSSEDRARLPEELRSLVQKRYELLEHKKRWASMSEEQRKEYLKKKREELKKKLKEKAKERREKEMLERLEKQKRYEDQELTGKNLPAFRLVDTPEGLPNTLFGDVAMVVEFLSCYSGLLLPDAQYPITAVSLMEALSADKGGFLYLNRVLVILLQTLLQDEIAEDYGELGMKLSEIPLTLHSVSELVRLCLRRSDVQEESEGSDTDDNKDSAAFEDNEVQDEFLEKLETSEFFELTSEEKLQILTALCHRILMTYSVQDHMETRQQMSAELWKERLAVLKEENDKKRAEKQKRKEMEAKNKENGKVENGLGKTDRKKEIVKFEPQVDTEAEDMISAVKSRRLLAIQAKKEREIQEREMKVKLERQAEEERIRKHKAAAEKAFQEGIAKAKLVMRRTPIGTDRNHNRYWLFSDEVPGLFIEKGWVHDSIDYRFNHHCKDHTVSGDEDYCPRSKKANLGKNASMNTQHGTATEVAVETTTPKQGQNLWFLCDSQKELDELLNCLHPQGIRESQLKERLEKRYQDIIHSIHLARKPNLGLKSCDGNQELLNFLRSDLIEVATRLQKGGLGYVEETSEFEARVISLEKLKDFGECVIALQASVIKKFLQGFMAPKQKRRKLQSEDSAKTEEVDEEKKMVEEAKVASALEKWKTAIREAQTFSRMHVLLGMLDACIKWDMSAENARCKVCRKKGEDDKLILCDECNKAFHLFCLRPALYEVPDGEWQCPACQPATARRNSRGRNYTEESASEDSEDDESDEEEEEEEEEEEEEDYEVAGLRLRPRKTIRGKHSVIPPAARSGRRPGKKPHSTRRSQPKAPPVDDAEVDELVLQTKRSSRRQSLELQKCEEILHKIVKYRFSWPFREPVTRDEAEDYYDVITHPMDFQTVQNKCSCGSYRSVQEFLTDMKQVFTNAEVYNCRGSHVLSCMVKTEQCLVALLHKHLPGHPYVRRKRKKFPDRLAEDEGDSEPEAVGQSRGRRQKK
Method: as §1

CDC7 = biological target: T5, CDC7 (Homo sapiens, UniProt O00311);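 as to 0.001 uM KAM: median log10 fold change of treatment over DMSO control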;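 as to 0.01 uM KAM: median log10 fold change of treatment over DMSO control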;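 as to 0.1 uM KAM: median log10 fold change of treatment over DMSO control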;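 as to 1 uM KAM: median log10 fold change of treatment over DMSO control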;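 as to 10 uM KAM: median log10 fold change of treatment over DMSO control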
T5 construct: endogenous in cells; host or cells: K562 lysate
Method: as §1

CAMKK1 = biological target: T6, CAMKK1 (Homo sapiens, UniProt Q8N5S9)
T6 construct: endogenous in cells; host or cells: K562
Method: as §1

[1] = read-out: RB50 (the source's name)
[2] = KAM 0.001-10 uM, read-out: RB50 (the source's name)

N#CCc1ccc(Nc2nc(NCCCN)cc(Nc3cc(C4CC4)[nH]n3)n2)cc1 [KAM]
median Log10 fold change (RPS6KA4; 0.001 uM KAM): 0.007656 | median Log10 fold change (RPS6KA4; 0.01 uM KAM): -0.02452 | median Log10 fold change (RPS6KA4; 0.1 uM KAM): -0.1561 | median Log10 fold change (RPS6KA4; 1 uM KAM): -0.4146 | median Log10 fold change (RPS6KA4; 10 uM KAM): -0.4828 | IC50 (RPS6KA4; [1]): 558 nM | IC50 (RIPK1; [2]): > 10000 nM | 0.001 uM KAM (RIPK1; relative to 0 uM KAM = 0): -0.02132 | 0.01 uM KAM (RIPK1; relative to 0 uM KAM = 0): 0.0003889 | 0.1 uM KAM (RIPK1; relative to 0 uM KAM = 0): -0.08047 | 1 uM KAM (RIPK1; relative to 0 uM KAM = 0): -0.1016 | 10 uM KAM (RIPK1; relative to 0 uM KAM = 0): -0.1828 | median Log10 fold change (TGFBR2; 0.001 uM KAM): 0.03003 | median Log10 fold change (TGFBR2; 0.01 uM KAM): -0.09645 | median Log10 fold change (TGFBR2; 0.1 uM KAM): -0.3569 | median Log10 fold change (TGFBR2; 1 uM KAM): -0.3895 | median Log10 fold change (TGFBR2; 10 uM KAM): -0.4032 | IC50 (TGFBR2; [1]): 117 nM | IC50 (BAZ1B; [2]): > 10000 nM | 0.001 uM KAM (BAZ1B; relative to 0 uM KAM = 0): -0.04632 | 0.01 uM KAM (BAZ1B; relative to 0 uM KAM = 0): -0.04267 | 0.1 uM KAM (BAZ1B; relative to 0 uM KAM = 0): -0.03143 | 1 uM KAM (BAZ1B; relative to 0 uM KAM = 0): -0.000154 | 10 uM KAM (BAZ1B; relative to 0 uM KAM = 0): -0.05532 | IC50 (CDC7; [2]): > 10000 nM | 0.001 uM KAM (CDC7; relative to 0 uM KAM = 0): -0.007298 | 0.01 uM KAM (CDC7; relative to 0 uM KAM = 0): -0.03198 | 0.1 uM KAM (CDC7; relative to 0 uM KAM = 0): -0.1182 | 1 uM KAM (CDC7; relative to 0 uM KAM = 0): -0.2032 | 10 uM KAM (CDC7; relative to 0 uM KAM = 0): -0.1853 | median Log10 fold change (CAMKK1; 0.001 uM KAM): -0.02592 | median Log10 fold change (CAMKK1; 0.01 uM KAM): -0.02355 | median Log10 fold change (CAMKK1; 0.1 uM KAM): -0.2718 | median Log10 fold change (CAMKK1; 1 uM KAM): -0.415 | median Log10 fold change (CAMKK1; 10 uM KAM): -0.4583 | IC50 (CAMKK1; [1]): 248 nM
